From PubChem BioAssay (NCI)
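Each compound was tested at five concentrations against cells in 96-well plates for 48 hours. The concentration for 50% growth inhibition is given as GI50. TGI: concentration producing complete growth inhibition.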

What was measured:
Assay in all cases: inhibition of tumour cell growth, NCI panel, 48 h
HOP-92 NSCLC = test system: HOP-92 NSCLC
OVCAR-5 ovarian = test system: OVCAR-5 ovarian
UACC-62 melanoma = test system: UACC-62 melanoma
EKVX NSCLC = test system: EKVX NSCLC
MOLT-4 leukemia = test system: MOLT-4 leukemia
CAKI-1 renal = test system: CAKI-1 renal
SNB-75 CNS = test system: SNB-75 CNS
LOX IMVI melanoma = test system: LOX IMVI melanoma
SR leukemia = test system: SR leukemia
UACC-257 melanoma = test system: UACC-257 melanoma
PC-3 prostate = test system: PC-3 prostate
NCI-H23 lung = test system: NCI-H23 lung
HCT-15 colon = test system: HCT-15 colon
SF-539 CNS = test system: SF-539 CNS
HS 578T breast = test system: HS 578T breast
ACHN renal = test system: ACHN renal
RXF 393 renal = test system: RXF 393 renal
SN12C renal = test system: SN12C renal
SK-MEL-2 melanoma = test system: SK-MEL-2 melanoma
HOP-62 NSCLC = test system: HOP-62 NSCLC
HL-60(TB) leukemia = test system: HL-60(TB) leukemia
NCI/ADR-RES ovarian = test system: NCI/ADR-RES ovarian
HCT-116 colon = test system: HCT-116 colon
NCI-H522 lung = test system: NCI-H522 lung
OVCAR-3 ovarian = test system: OVCAR-3 ovarian
A549 NSCLC = test system: A549 NSCLC
OVCAR-8 ovarian = test system: OVCAR-8 ovarian
KM12 colon = test system: KM12 colon
RPMI-8226 leukemia = test system: RPMI-8226 leukemia
NCI-H460 lung = test system: NCI-H460 lung
SNB-19 CNS = test system: SNB-19 CNS
MALME-3M melanoma = test system: MALME-3M melanoma
MDA-MB-435 = test system: MDA-MB-435
MDA-MB-231 breast = test system: MDA-MB-231 breast
K-562 leukemia = test system: K-562 leukemia
NCI-H226 lung = test system: NCI-H226 lung
OVCAR-4 ovarian = test system: OVCAR-4 ovarian
U251 CNS = test system: U251 CNS
HT29 colon = test system: HT29 colon
SF-268 CNS = test system: SF-268 CNS
UO-31 renal = test system: UO-31 renal
SK-MEL-5 melanoma = test system: SK-MEL-5 melanoma
CCRF-CEM leukemia = test system: CCRF-CEM leukemia
T-47D breast = test system: T-47D breast
SW-620 colon = test system: SW-620 colon
TK-10 renal = test system: TK-10 renal
DU-145 prostate = test system: DU-145 prostate
COLO 205 colon = test system: COLO 205 colon
M14 melanoma = test system: M14 melanoma
IGROV1 ovarian = test system: IGROV1 ovarian
SF-295 CNS = test system: SF-295 CNS
A498 renal = test system: A498 renal
HCC-2998 colon = test system: HCC-2998 colon
SK-MEL-28 melanoma = test system: SK-MEL-28 melanoma
MCF7 breast = test system: MCF7 breast
786-0 renal = test system: 786-0 renal
SK-OV-3 ovarian = test system: SK-OV-3 ovarian

O=C(C[Si](CC(=O)c1cccc(C(F)(F)F)c1)CC(=O)c1cccc(C(F)(F)F)c1)c1cccc(C(F)(F)F)c1
GI50 (HOP-92 NSCLC): 2.15 µM
TGI (HOP-92 NSCLC): 6.43 µM
GI50 (OVCAR-5 ovarian): 2.19 µM
TGI (OVCAR-5 ovarian): 6.51 µM
GI50 (UACC-62 melanoma): 2.23 µM
TGI (UACC-62 melanoma): 6.28 µM
GI50 (EKVX NSCLC): 3.1 µM
TGI (EKVX NSCLC): 11.5 µM
GI50 (MOLT-4 leukemia): 2.81 µM
TGI (MOLT-4 leukemia): 8.24 µM
GI50 (CAKI-1 renal): 3.39 µM
TGI (CAKI-1 renal): 12.9 µM
GI50 (SNB-75 CNS): 2.42 µM
TGI (SNB-75 CNS): 8.81 µM
GI50 (LOX IMVI melanoma): 2.94 µM
TGI (LOX IMVI melanoma): 11.4 µM
GI50 (SR leukemia): 2.72 µM
TGI (SR leukemia): 7.19 µM
GI50 (UACC-257 melanoma): 2.65 µM
TGI (UACC-257 melanoma): 6.38 µM
GI50 (PC-3 prostate): 3.11 µM
TGI (PC-3 prostate): 11 µM
GI50 (NCI-H23 lung): 3.27 µM
TGI (NCI-H23 lung): 15.6 µM
GI50 (HCT-15 colon): 2.06 µM
TGI (HCT-15 colon): 6.25 µM
GI50 (SF-539 CNS): 1.85 µM
TGI (SF-539 CNS): 3.85 µM
GI50 (HS 578T breast): 4.51 µM
TGI (HS 578T breast): 25.9 µM
GI50 (ACHN renal): 2 µM
TGI (ACHN renal): 4.94 µM
GI50 (RXF 393 renal): 2.07 µM
TGI (RXF 393 renal): 4.3 µM
GI50 (SN12C renal): 3.03 µM
TGI (SN12C renal): 10.1 µM
GI50 (SK-MEL-2 melanoma): 2.28 µM
TGI (SK-MEL-2 melanoma): 5.29 µM
GI50 (HOP-62 NSCLC): 3.44 µM
TGI (HOP-62 NSCLC): 12 µM
GI50 (HL-60(TB) leukemia): 2.52 µM
TGI (HL-60(TB) leukemia): 5.99 µM
GI50 (NCI/ADR-RES ovarian): 3.75 µM
TGI (NCI/ADR-RES ovarian): 15.4 µM
GI50 (HCT-116 colon): 2.41 µM
TGI (HCT-116 colon): 8.87 µM
GI50 (NCI-H522 lung): 2.6 µM
TGI (NCI-H522 lung): 9.01 µM
GI50 (OVCAR-3 ovarian): 3.32 µM
TGI (OVCAR-3 ovarian): 10.5 µM
GI50 (A549 NSCLC): 3.39 µM
TGI (A549 NSCLC): 11.3 µM
GI50 (OVCAR-8 ovarian): 3.48 µM
TGI (OVCAR-8 ovarian): 10.9 µM
GI50 (KM12 colon): 3.25 µM
TGI (KM12 colon): 10.1 µM
GI50 (RPMI-8226 leukemia): 2.12 µM
TGI (RPMI-8226 leukemia): 5.71 µM
GI50 (NCI-H460 lung): 3.18 µM
TGI (NCI-H460 lung): 10.4 µM
GI50 (SNB-19 CNS): 3.88 µM
TGI (SNB-19 CNS): 13.4 µM
GI50 (MALME-3M melanoma): 4.03 µM
TGI (MALME-3M melanoma): 17.4 µM
GI50 (MDA-MB-435): 3.27 µM
TGI (MDA-MB-435): 10.4 µM
GI50 (MDA-MB-231 breast): 2.3 µM
TGI (MDA-MB-231 breast): 4.73 µM
GI50 (K-562 leukemia): 3.57 µM
TGI (K-562 leukemia): 13.4 µM
GI50 (NCI-H226 lung): 2.11 µM
TGI (NCI-H226 lung): 5.3 µM
GI50 (OVCAR-4 ovarian): 3.12 µM
TGI (OVCAR-4 ovarian): 12.1 µM
GI50 (U251 CNS): 3.27 µM
TGI (U251 CNS): 10.4 µM
GI50 (HT29 colon): 2.55 µM
TGI (HT29 colon): 12 µM
GI50 (SF-268 CNS): 3.8 µM
TGI (SF-268 CNS): 13.9 µM
GI50 (UO-31 renal): 3.2 µM
TGI (UO-31 renal): 14.2 µM
GI50 (SK-MEL-5 melanoma): 1.63 µM
TGI (SK-MEL-5 melanoma): 3.03 µM
GI50 (CCRF-CEM leukemia): 3.1 µM
TGI (CCRF-CEM leukemia): 10.6 µM
GI50 (T-47D breast): 4.48 µM
TGI (T-47D breast): 13.9 µM
GI50 (SW-620 colon): 3.23 µM
TGI (SW-620 colon): 13.3 µM
GI50 (TK-10 renal): 3.52 µM
TGI (TK-10 renal): 14.1 µM
GI50 (DU-145 prostate): 4.43 µM
TGI (DU-145 prostate): 14.8 µM
GI50 (COLO 205 colon): 1.67 µM
TGI (COLO 205 colon): 3.07 µM
GI50 (M14 melanoma): 3.16 µM
TGI (M14 melanoma): 10.1 µM
GI50 (IGROV1 ovarian): 6.24 µM
TGI (IGROV1 ovarian): 27.8 µM
GI50 (SF-295 CNS): 2.88 µM
TGI (SF-295 CNS): 11.2 µM
GI50 (A498 renal): 2.34 µM
TGI (A498 renal): 9.62 µM
GI50 (HCC-2998 colon): 3.46 µM
TGI (HCC-2998 colon): 15 µM
GI50 (SK-MEL-28 melanoma): 3.51 µM
TGI (SK-MEL-28 melanoma): 13.6 µM
GI50 (MCF7 breast): 3.05 µM
TGI (MCF7 breast): 11.5 µM

O=C1CC(c2ccccc2Cl)Oc2ccccc21 (stereo not drawn)
TGI (HOP-92 NSCLC): 75.2 µM
TGI (786-0 renal): 89.5 µM
TGI (UACC-62 melanoma): > 100 µM
TGI (EKVX NSCLC): > 100 µM
TGI (CAKI-1 renal): > 100 µM
TGI (SNB-75 CNS): > 100 µM
TGI (LOX IMVI melanoma): > 100 µM
TGI (SR leukemia): 50.9 µM
TGI (UACC-257 melanoma): > 100 µM
TGI (PC-3 prostate): > 100 µM
TGI (HCT-15 colon): 61 µM
TGI (SF-539 CNS): 34.8 µM
TGI (HS 578T breast): > 100 µM
TGI (RXF 393 renal): 63.5 µM
TGI (SK-MEL-2 melanoma): 59.9 µM
TGI (HOP-62 NSCLC): 91.1 µM
TGI (HL-60(TB) leukemia): > 100 µM
TGI (NCI/ADR-RES ovarian): 48.8 µM
TGI (HCT-116 colon): > 100 µM
TGI (OVCAR-8 ovarian): 87.1 µM
TGI (KM12 colon): 81.7 µM
TGI (RPMI-8226 leukemia): 40.7 µM
TGI (NCI-H460 lung): > 100 µM
TGI (SK-OV-3 ovarian): > 100 µM
TGI (SNB-19 CNS): > 100 µM
TGI (MDA-MB-435): 43.7 µM
TGI (MDA-MB-231 breast): 47.4 µM
TGI (K-562 leukemia): 40.8 µM
TGI (NCI-H226 lung): 30.1 µM
TGI (OVCAR-4 ovarian): > 100 µM
TGI (U251 CNS): 83 µM
TGI (HT29 colon): 22.7 µM
TGI (SF-268 CNS): > 100 µM
TGI (UO-31 renal): > 100 µM
TGI (SK-MEL-5 melanoma): > 100 µM
TGI (CCRF-CEM leukemia): > 100 µM
TGI (T-47D breast): > 100 µM
TGI (SW-620 colon): 67.5 µM
TGI (TK-10 renal): > 100 µM
TGI (DU-145 prostate): > 100 µM
TGI (COLO 205 colon): 68.2 µM
TGI (M14 melanoma): > 100 µM
TGI (IGROV1 ovarian): > 100 µM
TGI (SF-295 CNS): > 100 µM
TGI (A498 renal): > 100 µM
TGI (HCC-2998 colon): > 100 µM
TGI (SK-MEL-28 melanoma): > 100 µM
TGI (MCF7 breast): 45.4 µM
